From patent publication US8410337B2, “Plant tubby-like proteins” (Academia Sinica, priority 2003, dated 2013)

Legend:
[1] = tested on: Arabidopsis seedlings; assay: Seedling growth and greening on MS agar with ABA; assay type: in vivo, Arabidopsis thaliana; conditions: 1 μM ABA and 1% sucrose
Method: (§1) All seeds of the above-described lines were surface sterilized with 70% ethanol for 30 s and then with 6% household bleach for 5 min before being washed five times with sterile water. For aseptic growth, they were plated on solid medium containing Murashige and Skoog salts (Invitrogen), vitamins (Duchefa), 0.7% phytoagar (Invitrogen), and 1% sucrose and transferred to a tissue culture room. For soil growth, seedlings were transferred into individual pots 8-10 days after germination and maintained in the growth chamber. Plants were grown at 22° C. under a 16-hr-light/8-hr-dark photoperiod aseptically or on soil.
In contrast, under the same conditions, attlp9-1 and attlp9-2 plants continued to grow and about 45% of the seedlings continued to develop true leaves, although at slower rates than abi4-1 mutant does.

[2] = tested on: Arabidopsis seeds; assay: Seed germination on media containing ABA; assay type: in vivo, Arabidopsis thaliana; conditions: 1 μM ABA
Method: as §1
To determine whether the transgenic plants display altered ABA responses, the above-described lines were germinated on media containing various concentrations of ABA. Seeds collected at the same or similar times were used. After surface-sterilization, sterile seeds were suspended in 0.15% agarose, and kept in the dark at 4° C. for 3 days to break residual dormancy. The seeds were then plated on agar plates in six replicates containing no ABA or 0.25, 0.5, 0.75, or 1.0 μM ABA in 12-cm plastic petri dishes. Each agar plate was divided into seven sections, and 50 seeds of WT and AtTLP9 transgenic seeds were plated on each section. A seed was regarded as germinated when the radicle protruded through the seed coat.

[3] = tested on: AtTLP7 gene expression; conditions: channel 2 treated vs channel 1 control; cited from earlier work
[4] = tested on: AtTLP10 gene expression; conditions: channel 2 treated vs channel 1 control; cited from earlier work
[5] = molecular target: T1, ASK1 (Arabidopsis thaliana, UniProt Q39255); assay: Yeast two-hybrid analysis; assay type: binding; conditions: AtTLP9 in pBD-GAL4 Cam, ASK1 in pAD-GAL4-2.1, yeast strain YRG-2
T1 construct: fragment containing the entire coding region of ASK1 (At1g75950); expressed in transfected cells; host or cells: Saccharomyces cerevisiae strain YRG-2
T1 sequence (Q39255 1-160): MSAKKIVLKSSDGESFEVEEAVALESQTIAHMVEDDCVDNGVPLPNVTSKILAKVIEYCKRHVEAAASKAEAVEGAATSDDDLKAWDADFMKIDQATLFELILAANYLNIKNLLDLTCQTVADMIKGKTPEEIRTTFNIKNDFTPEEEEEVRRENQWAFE
T1 sequence (Q9SQU1 1-380 partner): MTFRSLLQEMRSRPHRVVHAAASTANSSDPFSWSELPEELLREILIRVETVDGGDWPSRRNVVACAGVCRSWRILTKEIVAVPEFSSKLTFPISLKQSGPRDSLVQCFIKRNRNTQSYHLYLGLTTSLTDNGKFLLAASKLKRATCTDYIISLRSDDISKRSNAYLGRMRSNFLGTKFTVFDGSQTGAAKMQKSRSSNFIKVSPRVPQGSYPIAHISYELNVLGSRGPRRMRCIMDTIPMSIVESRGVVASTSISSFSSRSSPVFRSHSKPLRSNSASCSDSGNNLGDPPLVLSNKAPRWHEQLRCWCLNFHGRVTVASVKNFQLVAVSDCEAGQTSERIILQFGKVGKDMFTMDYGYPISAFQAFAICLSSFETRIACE
Source text: To test whether AtTLP could interact with ASK1, AtTLP9 was examined by the yeast two-hybrid analysis. Yeast two-hybrid vectors, pAD-GAL4-2.1 and pBD-GAL4 Cam (Stratagene, La Jolla, Calif.), were used for C-terminal GAL4 AD and BD fusion constructions, respectively. A 1.1-kb SalI-PstI fragment containing the entire coding region of AtTLP9 was cloned into the SalI-PstI site of the pBD-GAL4 Cam vector. A 480-bp EcoRI-PstI fragment containing the entire coding region of ASK1 (At1g75950) was cloned into the EcoRI-PstI site of the pAD-GAL4-2.1 vector. The yeast strain YRG-2 [MATa ura3-52 his3-200 ade2-101 lys2-801 trp1-901 leu2-3,112 ga14-542 ga180-538 LYS2::GAL1UAS-GAL1TATA-HIS3 URA3::(GAL43×17mer)-CYC1TATA-lacZ] was co-transformed with the two vectors. The Y2H analysis was performed according to the manufacturer's recommendations (Stratagene).

## CC1=CC(=O)CC(C)(C)[C@@]1(O)/C=C/C(C)=C\C(=O)O [ABA, Abscisic acid]
[1]; 10-d-old seedlings of sense lines
  seedlings showing developmental arrest: 90%
[1]; attlp9-1 and attlp9-2 plants
  seedlings continuing to develop true leaves: about 45%
[2]; attlp9-1 and attlp9-2 mutant seeds
  germination rate: ~50%
[2]; sense lines seeds (35S::AtTLP9 overexpression)
  germination rate: less than 10%
[2]; wild-type seeds
  seeds able to germinate: about 30%

## O=C(O)Cc1c[nH]c2ccccc12 [IAA]
[3]
  Ch2/Ch1 Normalized (Mean) AtTLP7: 2.21

## O=C(O)Cc1cccc2ccccc12 [NAA]
[4]
  Ch2/Ch1 Normalized (Mean) AtTLP10: 2.22
[3]
  Ch2/Ch1 Normalized (Mean) AtTLP7: 0.46

B1: AtTLP9: Arabidopsis TUBBY-like protein, polypeptide SEQ ID NO: 9 (protein, listed as Arabidopsis sp.)
chain: MTFRSLLQEMRSRPHRVVHAAASTANSSDPFSWSELPEELLREILIRVETVDGGDWPSRRNVVACAGVCRSWRILTKEIVAVPEFSSKLTFPISLKQSGPRDSLVQCFIKRNRNTQSYHLYLGLTTSLTDNGKFLLAASKLKRATCTDYIISLRSDDISKRSNAYLGRMRSNFLGTKFTVFDGSQTGAAKMQKSRSSNFIKVSPRVPQGSYPIAHISYELNVLGSRGPRRMRCIMDTIPMSIVESRGVVASTSISSFSSRSSPVFRSHSKPLRSNSASCSDSGNNLGDPPLVLSNKAPRWHEQLRCWCLNFHGRVTVASVKNFQLVAVSDCEAGQTSERIILQFGKVGKDMFTMDYGYPISAFQAFAICLSSFETRIACE
[5]
  interaction with ASK1: physically interacts with ASK1
